Test results from ChEMBL document CHEMBL3046568, “Synthesis, antimicrobial and DNA cleavage studies of some 4-aryloxymethylcoumarins obtained by reaction of 4-bromomethylcoumarins with bidentate nucleophiles” (2012).
Converted amounts (≈) assume the structure as drawn. The source made the active and inactive calls. The calls are words filed in the database; no cut-off is given here.

How the values were obtained:
[1] = system: Enterococcus faecalis; experiment: Antibacterial activity against Enterococcus faecalis MTCC 3382 after 24 hr by disk diffusion method; type: functional; conditions: for MIC: Enterococcus faecalis, MTCC 3382, 24 h
[2] = system: Escherichia coli; experiment: Induction of Escherichia coli MTCC 1089 DNA cleavage at 25 ug after 2 hr by agarose gel electrophoresis
[3] = system: Aspergillus niger; experiment: Induction of Aspergillus niger DNA cleavage at 50 ug after 2 hr by agarose gel electrophoresis
[4] = system: Escherichia coli; experiment: Induction of Escherichia coli MTCC 1089 DNA cleavage at 50 ug after 2 hr by agarose gel electrophoresis
[5] = system: Staphylococcus aureus; experiment: Induction of Staphylococcus aureus MTCC 3160 DNA cleavage at 50 ug after 2 hr by agarose gel electrophoresis
[6] = system: Fusarium oxysporum; experiment: Antifungal activity against Fusarium oxysporum after 3 to 4 days by serial dilution method; type: functional; conditions: for MIC: Fusarium oxysporum
[7] = system: Mucor fuscus; experiment: Antifungal activity against Mucor fuscus after 3 to 4 days by serial dilution method; type: functional; conditions: for MIC: Mucor fuscus
[8] = system: Penicillium chrysogenum; experiment: Antifungal activity against Penicillium chrysogenum after 3 to 4 days by serial dilution method; type: functional; conditions: for MIC: Penicillium chrysogenum
[9] = system: Aspergillus niger; experiment: Antifungal activity against Aspergillus niger after 3 to 4 days by serial dilution method; type: functional; conditions: for MIC: Aspergillus niger
[10] = system: Candida albicans; experiment: Antifungal activity against Candida albicans after 3 to 4 days by serial dilution method; type: functional; conditions: for MIC: Candida albicans
[11] = system: Aspergillus fumigatus; experiment: Antifungal activity against Aspergillus fumigatus after 3 to 4 days by serial dilution method; type: functional; conditions: for MIC: Aspergillus fumigatus
[12] = system: Escherichia coli; experiment: Antibacterial activity against Escherichia coli MTCC 1089 after 24 hr by disk diffusion method; type: functional; conditions: for MIC: Escherichia coli, MTCC 1089, 24 h
[13] = system: Klebsiella pneumoniae; experiment: Antibacterial activity against Klebsiella pneumoniae MTCC 3384 after 24 hr by disk diffusion method; type: functional; conditions: for MIC: Klebsiella pneumoniae, MTCC 3384, 24 h
[14] = system: Pseudomonas aeruginosa; experiment: Antibacterial activity against Pseudomonas aeruginosa MTCC 1034 after 24 hr by disk diffusion method; type: functional; conditions: for MIC: Pseudomonas aeruginosa, MTCC 1034, 24 h
[15] = system: Bacillus subtilis; experiment: Antibacterial activity against Bacillus subtilis MTCC 297 after 24 hr by disk diffusion method; type: functional; conditions: for MIC: Bacillus subtilis, MTCC 297, 24 h
[16] = system: Staphylococcus aureus; experiment: Antibacterial activity against Staphylococcus aureus MTCC 3160 after 24 hr by disk diffusion method; type: functional; conditions: for MIC: Staphylococcus aureus, MTCC 3160, 24 h
[17] = system: Aspergillus niger; experiment: Induction of Aspergillus niger DNA cleavage at 25 ug after 2 hr by agarose gel electrophoresis

| Structure (SMILES) | MIC [1] | Activity [3] | Activity [4] | Activity [5] | MIC [7] | MIC [8] | MIC [9] | MIC [10] | MIC [11] | MIC [12] | MIC [13] | inhibition zone (IZ) [1] | inhibition zone (IZ) [6] | inhibition zone (IZ) [7] | inhibition zone (IZ) [8] | inhibition zone (IZ) [9] | inhibition zone (IZ) [10] | inhibition zone (IZ) [11] | inhibition zone (IZ) [12] | inhibition zone (IZ) [13] | also measured |
| --- | --- | --- | --- | --- | --- | --- | --- | --- | --- | --- | --- | --- | --- | --- | --- | --- | --- | --- | --- | --- | --- |
| COc1ccc2oc(=O)cc(COc3cccc(OCc4cc(=O)oc5ccc(OC)cc45)c3)c2c1 | 6.25 µg/mL (≈ 12.8 µM) | Active | Active | Active | 6.25 µg/mL (≈ 12.8 µM) | 12.5 µg/mL (≈ 25.7 µM) | 12.5 µg/mL (≈ 25.7 µM) | 6.25 µg/mL (≈ 12.8 µM) | 12.5 µg/mL (≈ 25.7 µM) | 12.5 µg/mL (≈ 25.7 µM) | 6.25 µg/mL (≈ 12.8 µM) | 21 mm | 15 mm | 20 mm | 17 mm | 18 mm | 17 mm | 18 mm | 17 mm | 20 mm | Activity [2]: Active; MIC [6]: 12.5 µg/mL (≈ 25.7 µM); inhibition zone (IZ) [14]: 24 mm; MIC [14]: 6.25 µg/mL (≈ 12.8 µM); inhibition zone (IZ) [15]: 18 mm; MIC [15]: 6.25 µg/mL (≈ 12.8 µM); inhibition zone (IZ) [16]: 19 mm; MIC [16]: 6.25 µg/mL (≈ 12.8 µM) |
| CCN(CC)c1cccc(OCc2cc(=O)oc3ccc(Cl)cc23)c1 | 6.25 µg/mL (≈ 17.5 µM) | Active | Active | Active | 6.25 µg/mL (≈ 17.5 µM) | 6.25 µg/mL (≈ 17.5 µM) | 6.25 µg/mL (≈ 17.5 µM) | 6.25 µg/mL (≈ 17.5 µM) | 6.25 µg/mL (≈ 17.5 µM) | 12.5 µg/mL (≈ 34.9 µM) | 6.25 µg/mL (≈ 17.5 µM) | 22 mm | 16 mm | 21 mm | 23 mm | 22 mm | 18 mm | 22 mm | 15 mm | 19 mm | Activity [17]: Active; MIC [6]: 12.5 µg/mL (≈ 34.9 µM); inhibition zone (IZ) [14]: 25 mm; MIC [14]: 6.25 µg/mL (≈ 17.5 µM); inhibition zone (IZ) [15]: 20 mm; MIC [15]: 6.25 µg/mL (≈ 17.5 µM); inhibition zone (IZ) [16]: 21 mm; MIC [16]: 6.25 µg/mL (≈ 17.5 µM) |
| COc1ccc2oc(=O)cc(COc3cccc(O)c3)c2c1 | 6.25 µg/mL (≈ 21 µM) | Active | Active | Active | 6.25 µg/mL (≈ 21 µM) | 6.25 µg/mL (≈ 21 µM) | 6.25 µg/mL (≈ 21 µM) | 6.25 µg/mL (≈ 21 µM) | 12.5 µg/mL (≈ 41.9 µM) | 12.5 µg/mL (≈ 41.9 µM) | 6.25 µg/mL (≈ 21 µM) | 21 mm | 16 mm | 19 mm | 20 mm | 20 mm | 19 mm | 17 mm | 18 mm | 21 mm | Activity [2]: Active; MIC [6]: 12.5 µg/mL (≈ 41.9 µM); inhibition zone (IZ) [14]: 25 mm; MIC [14]: 6.25 µg/mL (≈ 21 µM); inhibition zone (IZ) [15]: 18 mm; MIC [15]: 6.25 µg/mL (≈ 21 µM); inhibition zone (IZ) [16]: 20 mm; MIC [16]: 6.25 µg/mL (≈ 21 µM) |

Continued by falling MIC [1], values first:

| MIC [1] | Activity [3] | Activity [4] | Activity [5] | MIC [7] | MIC [8] | MIC [9] | MIC [10] | MIC [11] | MIC [12] | MIC [13] | Structure (SMILES) | inhibition zone (IZ) [1] | inhibition zone (IZ) [6] | inhibition zone (IZ) [7] | inhibition zone (IZ) [8] | inhibition zone (IZ) [9] | inhibition zone (IZ) [10] | inhibition zone (IZ) [11] | inhibition zone (IZ) [12] | inhibition zone (IZ) [13] | also measured |
| --- | --- | --- | --- | --- | --- | --- | --- | --- | --- | --- | --- | --- | --- | --- | --- | --- | --- | --- | --- | --- | --- |
| 25 µg/mL (≈ 69.6 µM) | inactive | inactive | inactive | 12.5 µg/mL (≈ 34.8 µM) | 12.5 µg/mL (≈ 34.8 µM) | 6.25 µg/mL (≈ 17.4 µM) | 12.5 µg/mL (≈ 34.8 µM) | 12.5 µg/mL (≈ 34.8 µM) | 25 µg/mL (≈ 69.6 µM) | 12.5 µg/mL (≈ 34.8 µM) | CC(=O)Nc1cccc(OCc2cc(=O)oc3c2ccc2ccccc23)c1 | 12 mm | 11 mm | 16 mm | 18 mm | 19 mm | 16 mm | 17 mm | 13 mm | 15 mm | MIC [6]: 50 µg/mL (≈ 139 µM); inhibition zone (IZ) [14]: 19 mm; MIC [14]: 6.25 µg/mL (≈ 17.4 µM); inhibition zone (IZ) [15]: 13 mm; MIC [15]: 12.5 µg/mL (≈ 34.8 µM); inhibition zone (IZ) [16]: 12 mm; MIC [16]: 25 µg/mL (≈ 69.6 µM) |
| 6.25 µg/mL (≈ 17.7 µM) | Active | Active | Active | 6.25 µg/mL (≈ 17.7 µM) | 6.25 µg/mL (≈ 17.7 µM) | 6.25 µg/mL (≈ 17.7 µM) | 6.25 µg/mL (≈ 17.7 µM) | 6.25 µg/mL (≈ 17.7 µM) | 12.5 µg/mL (≈ 35.4 µM) | 6.25 µg/mL (≈ 17.7 µM) | CCN(CC)c1cccc(OCc2cc(=O)oc3ccc(OC)cc23)c1 | 20 mm | 15 mm | 19 mm | 23 mm | 20 mm | 17 mm | 19 mm | 17 mm | 20 mm | Activity [2]: Active; inhibition zone (IZ) [14]: 25 mm; MIC [14]: 6.25 µg/mL (≈ 17.7 µM); inhibition zone (IZ) [15]: 18 mm; MIC [15]: 6.25 µg/mL (≈ 17.7 µM); inhibition zone (IZ) [16]: 20 mm; MIC [16]: 6.25 µg/mL (≈ 17.7 µM) |
